Two molecules from publication PMC6563076 (2019) can be followed below.

The subject of experiment [1] is FmycT (DNA, G4) TTGAGGGTGGGTAGGGTGGGTAA
Briefly: FRET melting. As to conditions: 1 mM KCl, 99 mM LiCl; 1 μM ligand, 200 nM DNA, 10 mM Li cacodylate; ΔT1/2 used as ΔTm.

The test system of experiment [2] is F21T (DNA, G4) GGGTTAGGGTTAGGGTTAGGG
In words: FRET melting. To be noted: 1 μM ligand, 200 nM DNA, 10 mM Li cacodylate, ΔT1/2 used as ΔTm.

Experiment [3] relates to F10T (DNA, hairpin, hexaethylene glycol (HEG) linker between 10 and 11) TATAGCTATATATAGCTATA
In words: FRET melting. To be noted: 10 mM KCl, 90 mM LiCl; 1 μM ligand, 200 nM DNA, 10 mM Li cacodylate; ΔT1/2 used as ΔTm.

The test system of experiment [4] is telo23 (DNA, G4) TAGGGTTAGGGTTAGGGTTAGGG
Briefly: 1H NMR. As to conditions: Na+ (25 mM sodium phosphate, 70 mM NaCl); pH 7.0, 298 K, 175 µM DNA, 2 equivalents ligand; imino signals lost.

Experiment [5] relates to telo22 (DNA, G4) AGGGTTAGGGTTAGGGTTAGGG
In words: CD titration. As to conditions: Na+ (100 mM sodium phosphate); pH 7.4; conformational change similar to telo23.

Experiment [6] deals with telo23 (DNA, G4) TAGGGTTAGGGTTAGGGTTAGGG
Briefly: CD titration. To be noted: pH 7.4, 20 °C, 4.22 µM DNA.

With `C[n+]1ccc(-c2ccc3c(c2)/C(=C2/CCc4ccc(-c5cc[n+](C)cc5)cc42)CC3)cc1`, the ΔTm turned out to be 5.1 ± 1.4 °C in experiment [1]; 9.7 ± 0.5 °C in experiment [2] (10 mM KCl, 90 mM LiCl); 5.4 ± 1.0 °C in experiment [2] (100 mM NaCl); 0.1 ± 0.1 °C in experiment [3].
For `C[n+]1ccc(-c2ccc3c(c2)/C(=C2\CCc4ccc(-c5cc[n+](C)cc5)cc42)CC3)cc1`, the ΔTm in experiment [1] amounted to 15.8±0.8 °C; in experiment [2] (10 mM KCl, 90 mM LiCl), 21.4±0.3 °C; in experiment [2] (100 mM NaCl) it was 11.8±0.6 °C; in experiment [3], 0.8±0.2 °C. For the same molecule, the binding entry in experiment [4] is “yes”; in experiment [5] it was “yes”; in experiment [6] (K+ (100 mM potassium phosphate), no conformational change, ICD seen), “yes”; in experiment [6] (Na+ (100 mM sodium phosphate), ligand unfolds the G4) it was “yes”.
